Patent US20110046106A1, “ARYL SULFONAMIDES AS EFFECTIVE ANALGESICS” (BOEHRINGER INGELHEIM INTERNATIONAL GMBH, priority 2008, published 2011)

Target: T1, rat BK1 receptor (Rattus norvegicus, UniProt P97583)
T1 construct: expressed in transfected cells
T1 sequence (P97583 1-337): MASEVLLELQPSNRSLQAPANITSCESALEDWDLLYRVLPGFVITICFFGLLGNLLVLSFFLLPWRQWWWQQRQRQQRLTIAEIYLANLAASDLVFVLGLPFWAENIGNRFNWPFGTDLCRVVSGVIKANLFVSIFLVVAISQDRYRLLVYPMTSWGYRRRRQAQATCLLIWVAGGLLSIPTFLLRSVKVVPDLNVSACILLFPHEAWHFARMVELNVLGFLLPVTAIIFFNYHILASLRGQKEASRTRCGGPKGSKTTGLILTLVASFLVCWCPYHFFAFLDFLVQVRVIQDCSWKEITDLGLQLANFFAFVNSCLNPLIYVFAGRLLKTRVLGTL
Test: Bradykinin BK1-receptor binding (radioligand displacement, membranes of CHO cells)
Settings: membranes of CHO cells stably expressing the rat BK1 receptor; 1 to 5 nM [3H]-kallidin (DesArg10, Leu9); 120 minutes at room temperature
Procedure: Description of the Method of Bradykinin BK1-Receptor Binding
CHO cells stably expressing the rat BK1 receptor are cultivated in Dulbecco's modified medium. The medium from confluent cultures is removed and the cells are washed with PBS buffer, scraped off and isolated by centrifugation. The cells are then homogenized in suspension and the homogenate is centrifuged and resuspended. The protein content is determined and the membrane preparation obtained in this manner is then frozen at −80° C.
After thawing, 200 μl of the homogenate (50 to 100 μg of proteins/assay) are incubated at room temperature with 1 to 5 nM of kallidin (DesArg10, Leu9), [3,4-prolyl-3,43H(N)] and increasing concentrations of the test substance in a total volume of 250 μl for 120 minutes. The incubation is terminated by rapid filtration through GF/B glass fibre filters which had been pretreated with polyethyleneimine (0.3%). The protein-bound radio-activity is measured in a TopCount NXT (Perkin Elmer/Packard). Non-specific binding is defined as radioactivity bound in the presence of 1.0 μM Lys-Des-Arg9-bradykinin. The concentration/binding curve is analysed using a computer-assisted nonlinear curve fitting. The Ki which corresponds to the test substance is determined using the data obtained in this manner.
It is pointed out that the compounds were selected for their different structural elements and not in order to emphasise specific compounds: […]

Row | Ki [nM] | SMILES
1 | 24.7 | COc1cc(C)c(S(=O)(=O)N(C)CCOCC(=O)N(C)[C@@H]2CCN(C3CCN(C4CCOCC4)CC3)C2)c(C)c1 [Example 3]
2 | 23.5 | COc1cc(C)c(S(=O)(=O)N(C)CCOCC(=O)N(C)[C@@H]2CCN(C3CCN(C4CC4)CC3)C2)c(C)c1 [Example 8]
3 | 181 | COc1cc(C)c(S(=O)(=O)N(C)CCOCC(=O)N(C)C[C@@H]2CCN(C(=O)CCN3CCCC3)C2)c(C)c1 [Example 6]
